The record followed here is patent publication USRE37781E1, “Substituted cyclic carbonyls and derivatives thereof useful as retroviral protease inhibitors” (DuPont Pharmaceuticals Company, priority 1991, dated 2002).

In brackets after ≈: the same amount, converted by molar mass. Several values for one entry are separate records, joined by “and”; a condition that tells them apart may be missing. Equal entries are not always repeated. Where two headings read alike, the source gives them in different places.

A word on the IC90: it is the concentration needed for an effect of 90%. The melting point is the temperature of the solid-liquid transition.

In one data set the test system is HIV-1 (RF) in MT-2 cells. In words: microbe, parasite or virus in culture. The note with it: read-out: IC90. Format: cell-based. Put shortly:
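Read-out: gag and pol viral RNA captured by 5′-biotinylated oligonucleotides on streptavidin-coated wells, detected with alkaline phosphatase-linked reporter oligonucleotides, calibrated against BH10 in vitro transcripts. Virus stocks (RF, MN, IIIB) come from H9 cultures; MT-2 host cells kept in RPMI 1640, 5% FCS.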

For data set [1], the target named is single-chain tethered dimer of HIV protease (Human immunodeficiency virus 1, UniProt P04585). Kind of data set: biochemical. In kind it is biochemical. More on the design: fused on or other part: A second copy of the same protease unit is joined to the first by a short peptide tether, giving one polypeptide.
Where [2] appears, read: Human immunodeficiency virus 1, MT2, 48 h, Table 2d, class symbols.
The mark [3] stands for this setting: read-out: HPLC K1, Table 2d, class symbols.
Where [4] appears, read: Human immunodeficiency virus 1, MT2, 48 h, Table 2d, HIV RNA assay.
Where [5] appears, read: read-out: HPLC K1, Table 2d, HIV protease inhibition, HPLC method.
The mark [6] stands for this setting: Human immunodeficiency virus 1, MT2, Table 2m.

Take `CCOC(=O)c1ccc(CN2C(=O)N(Cc3ccc(C(=O)OCC)cc3)C(Cc3ccccc3)C(O)C(O)C2Cc2ccccc2)cc1` (stereo not drawn) [Example 11F]: the melting point lay in the range of 174 to 178 °C. Moreover, the IC90 with HIV-1 (RF) in MT-2 cells (setting [2]) is greater than 100 µg/mL. Besides, in data set [1] (setting [3]), the Ki is 10 to 1000 nM.
`CONC(=O)c1cccc(CN2C(=O)N(Cc3cccc(C(=O)NOC)c3)C(Cc3ccccc3)C(O)C(O)C2Cc2ccccc2)c1` (stereo not drawn) [10R]: the melting point fell in the range of 150 to 158 °C. The IC90 in the data set on HIV-1 (RF) in MT-2 cells (setting [2]) is less than 10 µg/mL. Moreover, the Ki in data set [1] (setting [3]) is less than 10 nM.
For `N#Cc1cccc(CN2C(=O)N(Cc3cccc(C=O)c3)C(Cc3ccccc3)C(O)C(O)C2Cc2ccccc2)c1` (stereo not drawn) [10C] the same measures were 189 to 191 °C, less than 10 µg/mL and less than 10 nM.
Compound `NC(=NO)c1cccc(CN2C(=O)N(Cc3ccc(CO)cc3)C(Cc3ccccc3)C(O)C(O)C2Cc2ccccc2)c1` (stereo not drawn) [15AH] yielded a melting point of 198 to 199 °C. For the same compound, the IC90 with HIV-1 (RF) in MT-2 cells (setting [4]) was less than 10 µg/mL. In addition, the Ki in data set [1] (setting [5]) is less than 10 nM.
Compound `O=C1N(Cc2cccc(-c3ncc[nH]3)c2)C(Cc2ccccc2)C(O)C(O)C(Cc2ccccc2)N1Cc1cccc(-c2ncc[nH]2)c1` (stereo not drawn) [Example 15BR] gave a melting point of 178 to 180 °C. Moreover, in the data set on HIV-1 (RF) in MT-2 cells (setting [4]), the concentration for an effect of 90% (IC90) was less than 10 µg/mL. Also, the Ki in data set [1] (setting [5]) was less than 10 nM.
For the compound `O=C(O)c1cccc(CN2C(=O)N(CC3CC3)C(Cc3ccccc3)C(O)C(O)C2Cc2ccccc2)c1` (stereo not drawn) [15WQ], the melting point was 135 to 137 °C. The IC90 with HIV-1 (RF) in MT-2 cells (setting [2]) was less than 10 µg/mL. Besides, the Ki in data set [1] (setting [3]) is less than 10 nM.
As to `CCCNC(=O)c1cccc(CN2C(=O)N(Cc3cccc(C(=O)O)c3)C(Cc3ccccc3)C(O)C(O)C2Cc2ccccc2)c1` (stereo not drawn) [15WO], the melting point was in the range of 151 to 153 °C. For the same compound, the IC90 in the data set on HIV-1 (RF) in MT-2 cells (setting [2]) is less than 10 µg/mL. For the same compound, the Ki in data set [1] (setting [3]) was less than 10 nM.
In turn, `O=S1(=O)N(CC2CC2)C(Cc2ccccc2)C(O)C(O)C(Cc2ccccc2)N1CC1CC1` (stereo not drawn) [Example 23F] yielded a melting point of 71 to 72 °C. The IC90 with HIV-1 (RF) in MT-2 cells (setting [6]) was less than 10 µg/mL. Besides, in data set [1] (read-out: HPLC Ki, Table 2m), the Ki is less than 10 nM.
`CC(C)NC(=O)c1cccc(CN2C(=O)N(Cc3cccc(C(=O)O)c3)C(Cc3ccccc3)C(O)C(O)C2Cc2ccccc2)c1` (stereo not drawn) [15WN] registered a melting point of 164 to 167 °C. In addition, the IC90 in the data set on HIV-1 (RF) in MT-2 cells (setting [2]) was less than 10 µg/mL. Moreover, the Ki in data set [1] (setting [3]) was less than 10 nM.
For `O=C1N(Cc2cccc(-c3nnn[nH]3)c2)C(Cc2ccccc2)C(O)C(O)C(Cc2ccccc2)N1Cc1cccc(-c2nnn[nH]2)c1` (stereo not drawn) [9T], in that order: 159.4 °C, greater than 100 µg/mL and less than 10 nM.
As for `O=[N+]([O-])c1cccc(CN2C(Cc3ccccc3)C(O)C(O)C(Cc3ccccc3)N(Cc3cccc([N+](=O)[O-])c3)S2(=O)=O)c1` (stereo not drawn) [23L], the melting point was in the range of 196 to 198 °C. Besides, the concentration for an effect of 90% (IC90) with HIV-1 (RF) in MT-2 cells (setting [6]) is less than 10 µg/mL. Further, the Ki in data set [1] (read-out: HPLC Ki, Table 2m) fell in the range of 10 to 1000 nM.
In turn, `NNC(=O)c1cccc(CN2C(=O)N(Cc3cccc(C(=O)NN)c3)C(Cc3ccccc3)C(O)C(O)C2Cc2ccccc2)c1` (stereo not drawn) [Example 10M] had a melting point of 205 °C. Besides, the IC90 in the data set with HIV-1 (RF) in MT-2 cells (setting [2]) is less than 10 µg/mL. Moreover, in data set [1] (setting [3]), the Ki was less than 10 nM.
In turn, `O=C1N(Cc2cccc(NS(=O)(=O)C(F)(F)F)c2)C(Cc2ccccc2)C(O)C(O)C(Cc2ccccc2)N1Cc1cccc(NS(=O)(=O)C(F)(F)F)c1` (stereo not drawn) [15B] came in with a melting point of 141.8 °C. Moreover, the IC90 in the data set with HIV-1 (RF) in MT-2 cells (setting [2]) fell in the range of 10 to 100 µg/mL (≈ 12.5 to 125 µM). Further, in data set [1] (setting [3]), the Ki was less than 10 nM.
In the case of `CSc1cccc(CN2C(=O)N(Cc3cccc(SC)c3)C(Cc3ccccc3)C(O)C(O)C2Cc2ccccc2)c1` (stereo not drawn) [Example 12R], the melting point was 169 °C and 169.3 °C. The IC90 in the data set with HIV-1 (RF) in MT-2 cells (setting [2]) is less than 10 µg/mL. The Ki in data set [1] (setting [3]) is less than 10 nM.
For `O=C(O)c1cccc(CN2C(=O)N(Cc3ccc(CO)cc3)C(Cc3ccccc3)C(O)C(O)C2Cc2ccccc2)c1` (stereo not drawn) [15WR], the melting point was in the range of 130 to 132 °C. In addition, in the data set on HIV-1 (RF) in MT-2 cells (setting [2]), the IC90 is less than 10 µg/mL. Also, in data set [1] (setting [3]), the Ki was less than 10 nM.
`NC(=NO)c1cccc(CN2C(=O)N(Cc3ccc4ccccc4c3)C(Cc3ccccc3)C(O)C(O)C2Cc2ccccc2)c1` (stereo not drawn) [15AN] displayed a melting point of 192 to 193 °C. Moreover, in the data set on HIV-1 (RF) in MT-2 cells (setting [4]), the IC90 is less than 10 µg/mL. In data set [1] (setting [5]), the Ki was less than 10 nM.
